Measurements taken from US20250034171A1, “IMIDAZOPYRIDINE AMIDES AND RELATED COMPOUNDS FOR USE IN THE TREATMENT OF BACTERIAL INFECTIONS” (priority 2021, published 2025).
Values after ≈ are worked out from the molar mass of the structure shown.

Experiments:
[1] = system: Mycobacterium tuberculosis strain H37Rv; assay: Test 2: MIC determination against M. tuberculosis, resazurin fluorescence; type: cell-based; conditions: Mycobacterium tuberculosis, H37RV, Test 2, M. tuberculosis H37Rv; for MIC90: read-out: Bacterial activity MIC90; for IC50: read-out: Bacterial activity pMIC50 (converted)
[2] = Metabolic stability in liver microsomes (intrinsic clearance); type: in vitro ADME; conditions: mouse, microsomes; for half-life at 1 µM: pH 7.4, Metabolic Stability Half life (mouse, min.); for microsomal CLint at 1 µM: pH 7.4, mouse liver microsomes, read-out: Metabolic Stability (liver microsome intrinsic clearance) Clearance (mouse, μl/min./mg protein)
Protocol: The test compound was incubated under the generic condition (0.5 mg/ml microsomal protein, 1 mM NADPH, 1 mM MgCl2, and 0.1 M phosphate buffer, pH 7.4, 37° C.) at a defined substrate concentration (typically 1 μM) in liver microsomes of selected species across a time course (typically 0, 5, 10, 20, 40 and 60 minutes) at Cyprotex (Cheshire, UK). The liver microsomes, buffer and test compound will be pre-incubated for 5 minutes. The addition of the co-factor NADPH will initiate the reaction and the reaction was terminated by addition of acetonitrile. The samples were centrifuged prior to analysis by LC-MS/MS analysis. The relative amount of parent compound remaining in the active incubations vs. the control incubations (t=0 mins) for each compound was measured by peak area comparison. The in vitro metabolic half-life (t1/2) was calculated using the slope of the log-linear regression from the percentage parent compound remaining versus time relationship (κ), The in vitro intrinsic clearance (Cl^int) (μl/min/mg microsomal protein) was calculated using the in vitro metabolic half-life, incubation volume and the weight of microsomal protein in the incubation.

SMILES	MIC90 [1] [µM]	IC50 [1] [pM]	half-life at 1 µM [2] [h]	microsomal CLint at 1 µM [2] [µL/min/mg]
CCc1nc2ncc(OC)cn2c1C(=O)NCc1ccc(-c2nc3n(n2)CC[C@H](C(F)(F)F)C3)cc1 [Compound 49]	0.023 (≈ 0.0115 µg/mL)	7760	1.8	12.9
O=C(NCc1ccc(-c2nc3n(n2)CC[C@@H](C(F)(F)F)C3)cc1)c1c(C(F)F)nc2n1CCCC2 [Compound 80]	0.2 (≈ 0.0989 µg/mL)	56200	1.42	16.3
O=C(NCc1ccc(-c2nc3n(n2)CC[C@H](C(F)(F)F)C3)cc1)c1c(C(F)F)nc2n1CCCC2 [Compound 174]	0.25 (≈ 0.124 µg/mL)	67600	1.34	17.3
CCc1nc2ncccn2c1C(=O)NCc1ccc(-c2cc3n(n2)CCC(C(F)(F)F)C3)cc1 (centres unmarked) [Compound 180]	0.12 (≈ 0.0562 µg/mL)	20000	2.35	9.9
CCc1nc2ncccn2c1C(=O)NCc1ccc(-c2cn3c(n2)CC(C(F)(F)F)CC3)c(F)c1 (centres unmarked) [Compound 186]	0.19 (≈ 0.0924 µg/mL)	40700	> 3	< 7.7
CCc1nc2n(c1C(=O)NCc1ccc(-c3nc4n(n3)CC(C(F)(F)F)CC4)cc1)CCCC2 (centres unmarked) [Compound 188]	0.23 (≈ 0.109 µg/mL)	22900	–	–
CCc1nc2ncccn2c1C(=O)NCc1ccc(-c2nc3n(n2)CCC(C(C)(F)F)C3)cc1 (centres unmarked) [Compound 189]	0.33 (≈ 0.154 µg/mL)	87100	–	–
CCc1nc2ncccn2c1C(=O)NCc1ccc(-c2nc3n(n2)CC[C@H](C(F)(F)F)C3)cc1 [Compound 190]	0.19 (≈ 0.0892 µg/mL)	47900	–	–
CCc1nc2ncc(C(F)(F)F)cn2c1C(=O)NCc1ccc(-c2cn3c(n2)C[C@H](C(F)(F)F)CC3)cc1 [Compound 192]	> 5	1.55e+06	–	–
CCc1nc2ncc(C(F)(F)F)cn2c1C(=O)NCc1ccc(-c2cn3c(n2)C[C@@H](C(F)(F)F)CC3)cc1 [Compound 193]	> 0.5	> 501000	–	–
CCc1nc2ncc(N)cn2c1C(=O)NCc1ccc(-c2nc3n(n2)CCC(C(F)(F)F)C3)c(F)c1 (centres unmarked) [Compound 197]	0.21 (≈ 0.106 µg/mL)	69200	–	–
CCc1nc2ncc(N)cn2c1C(=O)NCc1ccc(-c2nc3n(n2)CCC(C(F)(F)F)C3)c(C)c1 (centres unmarked) [Compound 198]	0.15 (≈ 0.0748 µg/mL)	45700	–	–
CCc1nc2ncc(N)cn2c1C(=O)NCc1ccc(-c2nc3n(n2)CCCC3)cc1 [Compound 199]	> 0.5	> 501000	–	–
CCc1nc2ncc(N)cn2c1C(=O)NCc1ccc(-c2nc3n(n2)CCC(C(C)(F)F)C3)cc1 (centres unmarked) [Compound 200]	0.22 (≈ 0.106 µg/mL)	61700	–	–
